The IC50 is the point on the concentration scale where inhibition reaches its midpoint.

The text below walks through data of US20240279237A1, “FUSED BICYCLIC HETEROARYL COMPOUNDS USEFUL AS NLRP3 INHIBITORS” (Hoffmann-La Roche Inc., priority 2021, published 2024).

Where a name gives a salt, the structure may show the parent alone.

This assay deals with T1, NLRP3 (Homo sapiens, UniProt Q96P20).
T1 construct: Seed THP-1 cells (25,000 cells/well) containing 1.0 μg/ml LPS in 40 μl of RPMI medium; host or cells: THP-1 cells
T1 sequence (Q96P20 whole entry): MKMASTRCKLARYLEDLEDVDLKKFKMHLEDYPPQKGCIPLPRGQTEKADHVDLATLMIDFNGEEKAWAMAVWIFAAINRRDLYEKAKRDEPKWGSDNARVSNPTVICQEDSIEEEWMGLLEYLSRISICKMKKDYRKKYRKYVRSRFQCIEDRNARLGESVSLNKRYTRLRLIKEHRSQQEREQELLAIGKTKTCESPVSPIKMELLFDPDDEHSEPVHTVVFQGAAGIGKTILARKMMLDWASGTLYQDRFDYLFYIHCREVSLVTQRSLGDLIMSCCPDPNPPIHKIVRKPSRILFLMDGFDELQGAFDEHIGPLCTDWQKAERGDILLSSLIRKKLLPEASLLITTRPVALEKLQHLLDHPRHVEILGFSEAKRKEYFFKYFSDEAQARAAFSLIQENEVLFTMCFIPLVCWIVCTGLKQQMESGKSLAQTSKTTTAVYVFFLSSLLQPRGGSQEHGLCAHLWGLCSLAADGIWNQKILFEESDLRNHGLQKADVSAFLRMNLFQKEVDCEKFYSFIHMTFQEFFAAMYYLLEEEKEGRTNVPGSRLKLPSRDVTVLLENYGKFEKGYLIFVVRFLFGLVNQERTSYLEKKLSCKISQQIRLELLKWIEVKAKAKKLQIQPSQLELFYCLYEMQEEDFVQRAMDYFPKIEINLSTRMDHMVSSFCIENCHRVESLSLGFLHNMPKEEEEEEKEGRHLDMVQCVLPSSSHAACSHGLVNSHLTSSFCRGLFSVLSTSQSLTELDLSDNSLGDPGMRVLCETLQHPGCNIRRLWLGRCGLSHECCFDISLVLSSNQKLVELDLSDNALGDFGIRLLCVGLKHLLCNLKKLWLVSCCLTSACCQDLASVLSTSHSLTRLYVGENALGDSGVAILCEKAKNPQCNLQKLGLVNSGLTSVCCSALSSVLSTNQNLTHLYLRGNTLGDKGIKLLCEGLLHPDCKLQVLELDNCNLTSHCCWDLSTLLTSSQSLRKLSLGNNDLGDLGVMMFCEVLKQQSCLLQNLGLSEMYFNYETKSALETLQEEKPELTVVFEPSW
Kind of assay: THP-1 Cells Pyroptosis Assay. Particulars: THP-1 cells with 1.0 μg/ml LPS; compound 3 hours; nigericin 5 μM 1 hr; resazurin readout. The format is cell-based. How it is done:
The cells were routinely passaged and grown to confluency (˜10^6 cells/ml). On the day of the experiment, THP-1 cells were harvested and resuspended into RPMI medium (without FBS). The cells were then counted and viability (>90%) checked by Trypan blue (Sigma #T8154). […] To this diluted cell solution was added LPS (Sigma #L4524) to give a 1 μg/ml Final Assay Concentration (FAC). 40 μl of the final preparation was aliquoted into each well of a 96-well plate. The plate thus prepared was used for compound screening.
The following method step-by-step assay was followed for compound screening. • 1. […] Incubate for 3 hours at 37° C., 5% CO2 • 4. Add 5 μl nigericin (Sigma #N7143) (FAC 5 μM) to all wells • 5. Incubate for 1 hr at 37° C., 5% CO2 • 6. At the end of the incubation period, spin plates at 300×g for 3 mins and remove supernatant • 7. Then add 50 μl of resazurin (Sigma #R7017) (FAC 100 μM resazurin in RPMI medium without FBS) and incubate plates for a further 1-2 hours at 37° C. and 5% CO2 • 8.
On the technique in general: Resazurin is reduced to fluorescent resorufin, in cell work by metabolically active cells.

Take `Cc1cc(C#N)cc(O)c1-c1ccc2oc(N[C@@H]3CCCN(CCO)C3)nc2n1` [Example 85, 3-Hydroxy-4-[2-[[(3R)-1-(2-hydroxyethyl)-3-piperidyl]amino]oxazolo[4,5-b]pyridin-5-yl]-5-methyl-benzonitrile]: the IC50 stood at 0.0154 µM.

`CCN1CCC[C@@H](Nc2nc3nc(-c4c(C)cc(C)cc4O)ccc3o2)C1` [Example 123, 2-[2-[[(3R)-1-Ethyl-3-piperidyl]amino]oxazolo[4,5-b]pyridin-5-yl]-3,5-dimethyl-phenol] returned a half-inhibitory concentration (IC50) of 0.0007 µM.

`CCN1CCCC(Nc2nc3nc(-c4c(C)cc(C(F)(F)F)cc4O)ccc3o2)C1` (racemic) [Example 1, (rac)-2-[2-[(1-Ethyl-3-piperidyl)amino]oxazolo[4,5-b]pyridin-5-yl]-3-methyl-5-(trifluoromethyl)phenol] had a concentration for half-maximal inhibition (IC50) of 0.0019 µM.

`Cc1cc(C(F)(F)F)cc(O)c1-c1cc(C)c2oc(N[C@@H]3CCCN(C)C3)nc2n1` [Example 33, 3-Methyl-2-[7-methyl-2-[[(3R)-1-methyl-3-piperidyl]amino]oxazolo[4,5-b]pyridin-5-yl]-5-(trifluoromethyl)phenol;2,2,2-trifluoroacetic acid salt] returned an IC50 of 0.0058 µM.

Consider `Cc1cc(Cl)cc(O)c1-c1ccc2oc([C@@H]3CCC(=O)NC3)nc2n1` (single isomer, unassigned) [Example 73B, (5R)-5-[5-(4-Chloro-2-hydroxy-6-methyl-phenyl)oxazolo[4,5-b]pyridin-2-yl]piperidin-2-one or (5S)-5-[5-(4-chloro-2-hydroxy-6-methyl-phenyl)oxazolo[4,5-b]pyridin-2-yl]piperidin-2-one], for which it took 0.0787 µM to reach half-maximal inhibition (IC50).

`Cc1cc(C(F)(F)F)cc(O)c1-c1ccc2oc(N3CC(O)C3)nc2n1` [Example 12, 1-[5-[2-Hydroxy-6-methyl-4-(trifluoromethyl)phenyl]oxazolo[4,5-b]pyridin-2-yl]azetidin-3-ol] came in with a half-maximal inhibitory concentration (IC50) of 0.215 µM.

Regarding `Cc1cc(C(F)(F)F)cc(O)c1-c1ccc2oc(N[C@@H]3CCCN(C)C3)nc2n1` [Example 15, 3-Methyl-2-[2-[[(3R)-1-methyl-3-piperidyl]amino]oxazolo[4,5-b]pyridin-5-yl]-5-(trifluoromethyl)phenol], the IC50 was found to be 0.0007 µM.

`Cc1cc(Cl)cc(O)c1-c1ccc2oc(N[C@@H]3CCCN(CCC(F)F)C3)nc2n1` [Example 74, 5-Chloro-2-[2-[[(3R)-1-(3,3-difluoropropyl)-3-piperidyl]amino]oxazolo[4,5-b]pyridin-5-yl]-3-methyl-phenol]: the IC50 amounted to 0.0092 µM.

On to `CCN1CC[C@@H](F)[C@@H](Nc2nc3nc(-c4c(C)cc(Cl)cc4O)ccc3o2)C1` [Example 99A, 5-Chloro-2-[2-[[(3S,4R)-1-ethyl-4-fluoro-3-piperidyl]amino]oxazolo[4,5-b]pyridin-5-yl]-3-methyl-phenol], for which half-maximal inhibition (IC50) required 0.0019 µM.

In the case of `Cc1cc(Cl)cc(O)c1-c1ccc2oc(N[C@@H]3CCCN(CCCO)C3)nc2n1` [Example 95, 5-Chloro-2-[2-[[(3R)-1-(3-hydroxypropyl)-3-piperidyl]amino]oxazolo[4,5-b]pyridin-5-yl]-3-methyl-phenol], the IC50 was found to be 0.0112 µM.

Regarding `COCCCN1CCC[C@@H](Nc2nc3nc(-c4c(C)cc(Cl)cc4O)ccc3o2)C1` [Example 96, 5-Chloro-2-[2-[[(3R)-1-(3-methoxypropyl)-3-piperidyl]amino]oxazolo[4,5-b]pyridin-5-yl]-3-methyl-phenol], the half-maximal inhibitory concentration (IC50) is 0.0561 µM.

`CC(=O)c1cc(-c2c(C)cc(C(F)(F)F)cc2O)nc2nc(N[C@@H]3CCCN(C)C3)oc12` [Example 102, 1-[5-[2-Hydroxy-6-methyl-4-(trifluoromethyl)phenyl]-2-[[(3R)-1-methyl-3-piperidyl]amino]oxazolo[4,5-b]pyridin-7-yl]ethanone;2,2,2-trifluoroacetic acid] had an IC50 of 0.0065 µM.

`CN1CCC[C@@H](Nc2nc3nc(-c4c(O)cc(Cl)cc4CO)ccc3o2)C1` [Example 94, 5-Chloro-3-(hydroxymethyl)-2-[2-[[(3R)-1-methyl-3-piperidyl]amino]oxazolo[4,5-b]pyridin-5-yl]phenol] gave a half-inhibitory concentration (IC50) of 0.0119 µM.

The compound `Cc1cc(Cl)cc(O)c1-c1ccc2oc(N[C@@H]3CCCN(C[C@@H]4CC[C@H]4O)C3)nc2n1` (racemic) [Example 118A, 5-chloro-2-[2-[[(3R)-1-[[rac trans-2-hydroxycyclobutyl]methyl]-3-piperidyl]amino]oxazolo[4,5-b]pyridin-5-yl]-3-methyl-phenol or 5-chloro-2-[2-[[(3R)-1-[[rac cis-2-hydroxycyclobutyl]methyl]-3-piperidyl]amino]oxazolo[4,5-b]pyridin-5-yl]-3-methyl-phenol] came in with a half-maximal inhibitory concentration (IC50) of 0.0508 µM.

In turn, `Cc1cc(C#N)cc(O)c1-c1ccc2oc(N3CCC4CCN(C)CC43)nc2n1` (single isomer, unassigned) [Example 27B, 4-[2-[(3aR,7aS or 3aS,7aR)-6-methyl-3,3a,4,5,7,7a-hexahydro-2H-pyrrolo[2,3-c]pyridin-1-yl]oxazolo[4,5-b]pyridin-5-yl]-3-hydroxy-5-methyl-benzonitrile] yielded an IC50 of 0.0027 µM.

In the case of `Cc1cc(C(F)(F)F)cc(O)c1-c1cc(C(C)O)c2oc(N[C@@H]3CCCN(C)C3)nc2n1` (stereo partly drawn) [Example 106, 2-[7-(1-Hydroxyethyl)-2-[[(3R)-1-methyl-3-piperidyl]amino]oxazolo[4,5-b]pyridin-5-yl]-3-methyl-5-(trifluoromethyl)phenol], it took 0.022 µM to reach half-maximal inhibition (IC50).

In turn, `Cc1cc(C(F)(F)F)cc(O)c1-c1ccc2oc(NC3CCCC(O)C3)nc2n1` (centres unmarked) [Example 13, 2-[2-[(3-Hydroxycyclohexyl)amino]oxazolo[4,5-b]pyridin-5-yl]-3-methyl-5-(trifluoromethyl)phenol] returned a concentration for half-maximal inhibition (IC50) of 0.442 µM.

In the case of `Cc1cc(Cl)cc(O)c1-c1ccc2oc(CC3CCCN(C)C3)nc2n1` (centres unmarked) [Example 83, 5-Chloro-3-methyl-2-[2-[(1-methyl-3-piperidyl)methyl]oxazolo[4,5-b]pyridin-5-yl]phenol], the half-maximal inhibitory concentration (IC50) is 0.0051 µM.

Turning to `CCN1CCC[C@@H](Nc2nc3nc(-c4c(O)cccc4C#N)ccc3o2)C1` [Example 119, 2-[2-[[(3R)-1-Ethyl-3-piperidyl]amino]oxazolo[4,5-b]pyridin-5-yl]-3-hydroxy-benzonitrile], the IC50 came to 0.023 µM.

`Cc1cc(C(F)(F)F)cc(O)c1-c1ccc2oc(N3CCOCC3CN(C)C)nc2n1` (racemic) [Example 2, (rac)-2-[2-[3-[(Dimethylamino)methyl]morpholin-4-yl]oxazolo[4,5-b]pyridin-5-yl]-3-methyl-5-(trifluoromethyl)phenol] had an IC50 of 0.0174 µM.

Compound `Cc1cc(C2CC2)cc(O)c1-c1ccc2oc(N[C@@H]3CCCN(C)C3)nc2n1` [Example 36, 5-Cyclopropyl-3-methyl-2-[2-[[(3R)-1-methyl-3-piperidyl]amino]oxazolo[4,5-b]pyridin-5-yl]phenol] yielded an IC50 of 0.032 µM.

Compound `CCN1C[C@@H](F)C[C@@H](Nc2nc3nc(-c4c(C)cc(Cl)cc4O)ccc3o2)C1` [Example 54, 5-Chloro-2-[2-[[(3R,5S)-1-ethyl-5-fluoro-3-piperidyl]amino]oxazolo[4,5-b]pyridin-5-yl]-3-methyl-phenol] had an IC50 of 0.0101 µM.

Compound `CCN1CCC[C@@H](Nc2nc3nc(-c4c(C)cc(C(F)(F)F)cc4O)cc(C#N)c3o2)C1` [Example 117, 2-[[(3R)-1-Ethyl-3-piperidyl]amino]-5-[2-hydroxy-6-methyl-4 (trifluoromethyl)phenyl]-oxazolo[4,5-b]pyridine-7-carbonitrile] yielded a 50% inhibitory concentration (IC50) of 0.0052 µM.

Turning to “5-Chloro-2-[2-[[(3R)-1-ethyl-3-piperidyl]amino]oxazolo[4,5-b]pyridin-5-yl]-4-fluoro-3-methyl-phenol;2,2,2-trifluoroacetic acid salt [Example 22]”, inhibition was half-maximal at 0.0054 µM (IC50).

`Cc1cc(C(F)F)cc(O)c1-c1ccc2oc(N[C@@H]3CCCN(C)C3)nc2n1` [Example 121, 5-(Difluoromethyl)-3-methyl-2-[2-[[(3R)-1-methyl-3-piperidyl]amino]oxazolo[4,5-b]pyridin-5-yl]phenol] registered a half-inhibitory concentration (IC50) of 0.0027 µM.

For the compound `CNC1CCCN(c2nc3nc(-c4c(C)cc(C(F)(F)F)cc4O)ccc3o2)C1` (racemic) [Example 10, (rac)-3-Methyl-2-[2-[3-(methylamino)-1-piperidyl]oxazolo[4,5-b]pyridin-5-yl]-5-(trifluoromethyl) phenol], the IC50 was 0.107 µM.

In turn, `CCN1CCC[C@@H](Nc2nc3nc(-c4ccc5c(c4O)CCO5)c(C)cc3o2)C1` [Example 35, 5-[2-[[(3R)-1-Ethyl-3-piperidyl]amino]-6-methyl-oxazolo[4,5-b]pyridin-5-yl]-2,3-dihydrobenzofuran-4-ol] yielded a half-inhibitory concentration (IC50) of 0.0273 µM.

Consider `Cc1cc(Cl)cc(O)c1-c1ccc2oc(N[C@@H]3CCCN(C4CCC4)C3)nc2n1` [Example 47, 5-Chloro-2-[2-[[(3R)-1-cyclobutyl-3-piperidyl]amino]oxazolo[4,5-b]pyridin-5-yl]-3-methyl-phenol], for which the IC50 was found to be 0.0012 µM.

Take `CCN1C[C@@H](O)C[C@@H](Nc2nc3nc(-c4c(C)cc(C#N)cc4O)ccc3o2)C1` [Example 28, 4-[2-[[(3R,5S)-1-Ethyl-5-hydroxy-3-piperidyl]amino]oxazolo[4,5-b]pyridin-5-yl]-3-hydroxy-5-methyl-benzonitrile;formic acid salt]: the IC50 turned out to be 0.0046 µM.
